“Also recorded” adds a separate entry of the source.
Experiments:
[1] = Quantitative T1-mapping MRI of glymphatic transport of intrathecally (cisterna magna) injected Gd-chelate into the brain, transcranial ultrasound vs sham; assay type: in vivo, rat; parameters: mean gadolinium-enhanced volume: unit not given here
Experimental: (§1) Animals. The Institutional Animal Care and Use Committees of Stanford University approved all animal experiments. Tests were performed in 42 male Long-Evans rats with bodyweight 300-350 gm (Charles River Laboratories, Wilmington, Mass., USA). Animals were randomly assigned to one of two groups: (1) no treatment (Sham), and (2) treatment (Ultrasound). Ultrasound (0.25 MI in situ, 7.7% duty cycle for 10 min) or sham was applied transcranially throughout the brain (FIG. 1A). Before each procedure, the fur on the neck was shaved and a cisterna magna injection of a gadolinium (Gd) chelate (Multihance, Bracco Diagnostics, NJ, USA) was performed while the animal was anesthetized under isoflurane. The body temperature, cardiac and respiratory rates, and O2 saturation were monitored throughout the experiment and the isoflurane level was titrated to keep these parameters constant; environmental heating was used to help maintain body temperature. Localizer, FLASH-T1-3D, T1-mapping, and T2*-weighted MR images were taken to visualize glymphatic transport across the brain, to quantify Gd-chelate kinetic parameters, and to evaluate for parenchymal damage. In separate cohorts, either of two different sized optical tracers, a small molecule (IR800CW Carboxylate, LICOR, Lincoln, Nebr., USA; ˜1 kDa) or a large molecule (Panitumumab-IRDye800: ˜150 kDa, 5 nM, produced under GMP at the Leidos Biomedical Research Center, Frederick, Md., USA) (39) were co-delivered with the Gd-chelate to model the delivery of similar-sized therapeutic agents.
Intrathecal Cisterna Magna Injection For anesthesia, the animals were induced with 5% isoflurane in oxygen using an induction chamber and then switched to a maintenance dose of 2%. The animal was positioned in a stereotaxic frame (Stoelting, Wood Dale, Ill., USA), immobilized with ear bars, and then the head flexed to 45 degrees. A 27-gauge catheter (Butterfly Needle, SAI Infusion Technology, Lake Villa, Ill., USA) was inserted in the cisterna magna to inject up to 80 μl of tracers (Gd-chelate: MultiHance, gadobenate dimeglumine; Bracco Diagnostics Inc, NJ, USA; 0.21 ml/kg) slowly over 30 seconds. To model the delivery of similar-sized therapeutic agents, two different sized molecules, free dye (IRDye800CW Carboxylate, LICOR, Lincoln, Nebr., USA; ˜1 kDa; 36 nmol/kg) and IR dye-conjugated antibody (Panitumumab-IRDye800: ˜150 kDa; 0.133 mg/kg) were co-delivered with the Gd-chelate. The respiratory rate (45-50 breaths per minute), and normal body temperature (36.5-37.5° C.) were maintained throughout the experiment through titration of isoflurane dose and with environmental heating.
Magnetic Resonance Imaging Protocol. Magnetic Resonance Imaging (MRI) (an actively-shielded Bruker 7T horizontal bore scanner (Bruker Corp, Billerica Mass.), with International Electric Co. (IECO) gradient drivers, a 120 mm ID shielded gradient insert (600 mT/m, 1000 T/m/s), AVANCE III electronics; 8-channel multi-coil RF and multinuclear capabilities and volume RF coils; and the supporting Paravision 6.0.1 platform) was used to visualize glymphatic transport of Gd-chelate into the brain and to make quantitative T1-maps. The facility provides isoflurane anesthesia in medical-grade oxygen, and physiological monitoring of the subject including ECG, pulse oximetry, respiration, and temperature feedback for core body temperature maintenance by warm airflow over the animal. Following cisterna magna contrast agent injection, an MRI compatible animal FUS system (Image Guided Therapy—IGT, Pessac, France) was used in all experiments. Animals were placed in a prone position in a plastic stereotactic frame that has a single channel radiofrequency transmit-receive head coil (IGT) which is coupled to the FUS system. Animals were immobilized in the frame with ear bars and a bite bar. Noninvasive, MRI-compatible monitors for the respiratory rate and body temperature were used during the imaging session. […]

[2] = Near-infrared fluorescence imaging of brain slices after intrathecal co-delivery of optical tracers, transcranial ultrasound vs sham; assay type: in vivo, rat; settings: about 2 hours after intrathecal delivery, 10 min ultrasound
Experimental: as §1, with “In separate cohorts, either of two different sized optical tracers, a small molecule (IR800CW Carboxylate, LICOR, Lincoln, Nebr., USA; ˜1 kDa) or a large molecule (Panitumumab-IRDye800: ˜150 kDa, 5 nM, produced under GMP at the Leidos Biomedical Research Center, Frederick, Md., USA) (39) were co-delivered with the Gd-chelate to model the delivery of similar-sized therapeutic agents.” left out
Fluorescence Imaging. […] Tissue sections were thaw-mounted on microscope glass slides (Fisher, Pittsburgh, Pa.), fixed the tissue-slides using 4% paraformaldehyde, and applied DAPI for fluorescence imaging. […]

CNC[C@H](O)[C@@H](O)[C@H](O)[C@H](O)CO.CNC[C@H](O)[C@@H](O)[C@H](O)[C@H](O)CO.O=C([O-])CN(CCN(CC(=O)[O-])CC(=O)O)CCN(CC(=O)O)C(COCc1ccccc1)C(=O)[O-].[Gd+3] (stereo not drawn) [Gd-chelate, gadobenate dimeglumine]
time at which perivascular influx of CSF into the brain is initially observed ([1]; 3D T1w MRI, after intrathecal administration): 12 min
brain volume containing a resolvable amount of contrast agent, ultrasound versus sham ([1]; T1-mapping MRI over time): significantly larger volume of brain
time by which cleared from the CSF-ISF spaces ([1]; T1w MRI after cisternal injection): ≤ 3 h
Gd-chelate deposition in the brain ([1]; T1w MRI, 24-72 h after ultrasound intervention): no any evidence of Gd deposition; also recorded: no prolonged Gd-chelate deposition
mean gadolinium-enhanced volume ([1]; Ultrasound cohort (0.25 MI, 10 min, applied at 23 min), 12 min baseline): 0.18±0.07
mean gadolinium-enhanced volume ([1]; Ultrasound cohort, 35 min): 0.43±0.16
mean gadolinium-enhanced volume ([1]; Ultrasound cohort, 70 min): 0.44±0.17
mean gadolinium-enhanced volume ([1]; Ultrasound cohort, 105 min): 0.45±0.25
mean gadolinium-enhanced volume ([1]; Ultrasound cohort, 180 min): 0.18±0.24
mean gadolinium-enhanced volume ([1]; Ultrasound cohort, 240 min): 0.17±0.24
increase of peak parenchymal uptake with ultrasound ([1]; low-intensity transcranial scanning ultrasound vs sham): 72-101%
mean gadolinium-enhanced volume ([1]; sham cohort, 12 min after intrathecal injection, mean ± S.D.): 0.17±0.084
mean gadolinium-enhanced volume ([1]; sham cohort, 35 min): 0.25±0.15
mean gadolinium-enhanced volume ([1]; sham cohort, 70 min): 0.22±0.1
mean gadolinium-enhanced volume ([1]; sham cohort, 105 min): 0.23±0.11
mean gadolinium-enhanced volume ([1]; sham cohort, 180 min): 0.11±0.12
mean gadolinium-enhanced volume ([1]; sham cohort, 240 min): 0.06±0.04
clearance timeline from the brain ([1]; with ultrasound): 3 h
residual tracer in the brain ([1]; with ultrasound, 3 h post-injection): increased residual tracer in the brain
time of peak parenchymal uptake ([1]; with ultrasound, from injection): 105 min
time of peak brain concentration ([1]; without further intervention (no ultrasound), after intrathecal injection): approximately 35 min
time to clear from the brain interstitial compartment ([1]; without further intervention, from injection): ≤ 3 h

Panitumumab-IRDye800: therapeutic antibody panitumumab (~150 kDa, EGFR-targeted) conjugated with the IR dye; large optical tracer
brain penetration (near-infrared dye-enhanced area), ultrasound compared to sham [2]: significantly greater degree with ultrasound
brain penetration (near-infrared dye-enhanced area), ultrasound compared to sham ([2]; listed as panitumumab): penetrated to a greater degree into the brain

From patent US20220072128A1, “ULTRASOUND-INDUCED CONVECTION FOR DRUG DELIVERY AND TO DRIVE GLYMPHATIC OR LYMPHATIC FLOWS” (The Board of Trustees of the Leland Stanford Junior …, priority 2020, published 2022)
